Measured values: patent US8901118B2, “Compounds and methods for kinase modulation, and indications therefor” (Plexxikon Inc., priority 2010, dated 2014)

Tests used:
Fms kinase = Fms kinase (Homo sapiens, UniProt P07333); experiment: Fms kinase biochemical activity assay (AlphaScreen, biotin-(E4Y)10 phosphorylation); details: 100 μM ATP; read-out: Biochemical Inhibition IC50 Fms
Procedure: In one assay the biochemical activity IC50 values are determined with respect to inhibition of Fms kinase activity, where inhibition of phosphorylation of a peptide substrate is measured as a function of compound concentration. Compounds to be tested, dissolved in DMSO (1 μL), are added to a white 384-well plate (Costar #3705). Working stocks of Fms kinase (Invitrogen #PV3249), biotin-(E4Y)10 substrate (Upstate Biotech, Cat#12-440), and ATP (Sigma, Cat#A-3377) are prepared in 25 mM Hepes pH 7.5, 0.5 mM MgCl2, 2 mM MnCl2, 2 mM DTT, 0.01% BSA, and 0.01% Tween-20. All components are added to the 384-well plate for a final concentration of 1 ng/well Fms, 30 nM biotin-(E4Y)10 (Upstate Biotechnology) and 100 μM ATP in a volume of 20 μL. Each sample is at 5% DMSO. The plate is then incubated for 20 minutes at 30° C. Just before use, working stocks of donor and acceptor beads from the AlphaScreen PY20 Detection Kit (PerkinElmer, Cat#676601M) are prepared in 25 mM Hepes pH 7.5, pH 7.4, 100 mM EDTA, 0.01% BSA. To stop the reaction, the plate is uncovered in the dark and 5 μL of Donor Beads solution (Streptavidin beads) is added to each well. The plate is incubated at room temperature for 20 minutes. Five microliters of Acceptor Beads solution (PY20 coated beads) are then added to each well. The final concentration of each bead is 10 μg/mL. The plates are incubated at room temperature for 60 minutes. Fluorescence signal is recorded on the Envision reader. Phosphorylated substrate results in binding of the PY20 antibody and association of the donor and acceptor beads such that signal correlates with kinase activity. The signal vs. compound concentration is used to determine the IC50.

c-Kit kinase = c-Kit kinase (Homo sapiens, UniProt P10721); experiment: c-Kit kinase biochemical activity assay (AlphaScreen, biotin-(E4Y)10 phosphorylation); details: 100 μM ATP; read-out: Biochemical Inhibition IC50 Kit
Procedure: Assays for biochemical and cell based activity are known in the art, for example, U.S. Patent Application Publication Number 2009/0076046, the disclosure of which is hereby incorporated by reference as it relates to such assays. For example, in one assay the biochemical activity IC50 values are determined with respect to inhibition of c-Kit kinase activity, where inhibition of phosphorylation of a peptide substrate is measured as a function of compound concentration. Compounds to be tested are dissolved in DMSO to a concentration of 20 mM. These are diluted 30 μL into 120 μL of DMSO (4 mM) and 1 μL is added to an assay plate. These are then serially diluted […] (50 μL to 100 μL DMSO) for a total of 8 points. Plates are prepared such that each kinase reaction is 20 μL in 1× kinase buffer (25 mM HEPES, pH 7.5, 2 mM MgCl2, 2 mM MnCl2, 0.01% Tween-20, 1 mM DTT, 0.01% BSA), 5% DMSO and 100 μM ATP. Substrate is 30 nM biotin-(E4Y) 10 (Millipore). C-kit kinase (obtained from Millipore (#14-559) or is prepared as described in U.S. Patent Application Publication Number 2009/0076046, the disclosure of which is hereby incorporated by reference as it relates to this assay) is at 0.75 ng per sample. After incubation of the kinase reaction for 1 hour at room temperature, 5 μL of donor beads (Streptavidin coated beads (Perkin Elmer Life Science) final concentration 10 μg/mL) in stop buffer (25 mM Hepes pH 7.5, 100 mM EDTA, 0.01% BSA) is added, the sample is mixed and incubated for 20 minutes at room temperature before adding 5 μL of acceptor beads (PY20 coated beads (Perkin Elmer Life Science) final concentration 10 μg/mL) in stop buffer. The samples are incubated for 60 minutes at room temperature and the signal per well is read on Envision reader. Phosphorylated substrate results in binding of the PY20 antibody and association of the donor and acceptor beads such that signal correlates with kinase activity. The signal vs. compound concentration is used to determine the IC50.

CYP2C19 = CYP2C19 (Homo sapiens, UniProt P33261); experiment: CYP2C19 inhibition (fluorescent substrate CEC); assay type: in vitro ADME; details: read-out: Cyp IC50 2C19
Procedure: (§1) CYP (Cytochrome P450) enzymes are the major drug metabolizing enzymes present in the liver. The inhibition of CYP enzyme activity (IC50) for each of CYP1A2, CYP2C19, CYP2C9, CYP2D6, CYP3A4(BFC) and CYP3A4(BQ) is determined for compounds, where inhibition of metabolism of a known substrate leads to a decrease in the fluorescence of the metabolized product. The fluorescence of the product is monitored as a function of compound concentration. Compounds are dissolved in DMSO to a concentration of 100 mM. These are diluted 1 μL into 82 μL of acetonitrile. An 11 μL aliquot of this solution is then added to 204 μL of cofactor mix (1.3% NADPH Regeneration system Solution A, 1.04% NADPH Regeneration system Solution B from BD Biosciences, 5% acetonitrile and 0.05% DMSO). These are then serially diluted 1:1 (160 μL to 160 μL co-factor mix) for a total of 10 points. A 10 μL aliquot of this final mixture is dispensed into 384 well assay plates and incubated for 10 minutes at 37° C. […] Assay plates are incubated at 37° C. (CYP1A2-15 min; CYP2C9-45 min; CYP2C19, 2D6 and 3A4-30 min) and read in a Tecan Safire 2 plate reader (CYP1A2, 2C19 and 3A4 409 ex/460 em; CYP2C9 and 2D6 409 ex/530 em). The signal versus compound concentration is used to determine the IC50. The enzymes and substrates for this assay are obtained from BD Biosciences.

CYP2C9 = CYP2C9 (Homo sapiens, UniProt P11712); experiment: CYP2C9 inhibition (fluorescent substrate MFC); assay type: in vitro ADME; details: read-out: Cyp IC50 2C9
Procedure: as §1

Sequence of Fms kinase (P07333 20-972): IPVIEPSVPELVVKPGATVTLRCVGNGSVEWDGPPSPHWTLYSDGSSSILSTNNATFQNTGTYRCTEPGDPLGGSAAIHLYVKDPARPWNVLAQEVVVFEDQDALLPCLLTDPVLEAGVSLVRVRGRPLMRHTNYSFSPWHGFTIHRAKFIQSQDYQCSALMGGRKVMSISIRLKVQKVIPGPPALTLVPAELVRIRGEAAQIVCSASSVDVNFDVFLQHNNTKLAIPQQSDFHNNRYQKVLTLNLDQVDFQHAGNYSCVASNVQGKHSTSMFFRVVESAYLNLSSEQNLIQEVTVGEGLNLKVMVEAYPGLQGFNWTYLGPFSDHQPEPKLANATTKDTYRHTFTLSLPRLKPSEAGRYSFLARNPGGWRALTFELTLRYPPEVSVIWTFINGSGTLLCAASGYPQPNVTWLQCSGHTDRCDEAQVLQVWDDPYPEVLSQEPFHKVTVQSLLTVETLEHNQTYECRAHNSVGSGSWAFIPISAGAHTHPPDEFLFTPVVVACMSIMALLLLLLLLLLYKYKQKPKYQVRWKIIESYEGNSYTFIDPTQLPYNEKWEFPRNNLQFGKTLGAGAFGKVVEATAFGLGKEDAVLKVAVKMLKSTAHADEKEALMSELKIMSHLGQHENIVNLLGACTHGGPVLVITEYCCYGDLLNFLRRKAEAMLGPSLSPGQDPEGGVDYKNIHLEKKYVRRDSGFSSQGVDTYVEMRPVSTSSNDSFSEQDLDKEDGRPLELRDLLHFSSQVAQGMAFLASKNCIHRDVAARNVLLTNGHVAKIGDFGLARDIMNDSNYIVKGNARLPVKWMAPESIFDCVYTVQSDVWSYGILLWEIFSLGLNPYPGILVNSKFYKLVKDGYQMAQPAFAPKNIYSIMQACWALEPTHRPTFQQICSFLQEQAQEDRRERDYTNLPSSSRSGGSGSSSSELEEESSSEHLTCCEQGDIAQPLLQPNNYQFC
Sequence of c-Kit kinase (P10721 26-976): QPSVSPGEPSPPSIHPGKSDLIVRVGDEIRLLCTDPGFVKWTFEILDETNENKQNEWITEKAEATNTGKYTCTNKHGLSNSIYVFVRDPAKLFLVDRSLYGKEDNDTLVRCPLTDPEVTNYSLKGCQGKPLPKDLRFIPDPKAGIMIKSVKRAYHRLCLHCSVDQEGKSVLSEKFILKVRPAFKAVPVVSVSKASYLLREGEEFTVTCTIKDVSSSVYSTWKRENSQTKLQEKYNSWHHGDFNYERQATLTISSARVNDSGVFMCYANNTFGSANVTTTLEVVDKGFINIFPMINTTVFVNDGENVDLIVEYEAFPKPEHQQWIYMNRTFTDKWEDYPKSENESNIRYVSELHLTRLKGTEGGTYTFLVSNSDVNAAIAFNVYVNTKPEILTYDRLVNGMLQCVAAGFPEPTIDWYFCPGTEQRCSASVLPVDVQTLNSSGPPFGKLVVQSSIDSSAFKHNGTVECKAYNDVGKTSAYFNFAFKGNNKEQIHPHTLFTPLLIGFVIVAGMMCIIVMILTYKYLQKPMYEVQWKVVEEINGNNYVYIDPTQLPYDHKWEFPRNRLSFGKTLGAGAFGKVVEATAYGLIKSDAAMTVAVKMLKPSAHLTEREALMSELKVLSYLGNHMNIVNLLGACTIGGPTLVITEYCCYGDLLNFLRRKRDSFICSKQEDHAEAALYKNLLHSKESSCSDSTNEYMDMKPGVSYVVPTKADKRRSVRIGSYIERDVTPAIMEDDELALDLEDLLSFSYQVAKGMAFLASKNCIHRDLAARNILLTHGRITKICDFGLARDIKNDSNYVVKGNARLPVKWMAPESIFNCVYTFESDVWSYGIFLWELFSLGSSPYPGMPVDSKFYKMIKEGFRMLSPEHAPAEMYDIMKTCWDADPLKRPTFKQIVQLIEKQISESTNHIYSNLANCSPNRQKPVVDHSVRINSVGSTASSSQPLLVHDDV
Sequence of CYP2C9 (P11712 whole entry): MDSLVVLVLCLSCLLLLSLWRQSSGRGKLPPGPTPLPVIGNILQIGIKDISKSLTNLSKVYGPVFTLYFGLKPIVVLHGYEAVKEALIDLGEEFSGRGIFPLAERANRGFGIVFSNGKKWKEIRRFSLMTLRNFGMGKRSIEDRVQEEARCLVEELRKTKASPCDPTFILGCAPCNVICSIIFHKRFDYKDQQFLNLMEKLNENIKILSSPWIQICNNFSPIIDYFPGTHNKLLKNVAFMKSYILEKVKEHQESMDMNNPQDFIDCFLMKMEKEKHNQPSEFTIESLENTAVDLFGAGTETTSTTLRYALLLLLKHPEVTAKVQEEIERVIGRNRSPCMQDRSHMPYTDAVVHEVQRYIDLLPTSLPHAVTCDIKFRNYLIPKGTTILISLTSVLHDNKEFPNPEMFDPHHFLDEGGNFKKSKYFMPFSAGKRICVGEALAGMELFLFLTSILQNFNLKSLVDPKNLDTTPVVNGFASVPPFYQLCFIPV
Sequence of CYP2C19 (P33261 whole entry): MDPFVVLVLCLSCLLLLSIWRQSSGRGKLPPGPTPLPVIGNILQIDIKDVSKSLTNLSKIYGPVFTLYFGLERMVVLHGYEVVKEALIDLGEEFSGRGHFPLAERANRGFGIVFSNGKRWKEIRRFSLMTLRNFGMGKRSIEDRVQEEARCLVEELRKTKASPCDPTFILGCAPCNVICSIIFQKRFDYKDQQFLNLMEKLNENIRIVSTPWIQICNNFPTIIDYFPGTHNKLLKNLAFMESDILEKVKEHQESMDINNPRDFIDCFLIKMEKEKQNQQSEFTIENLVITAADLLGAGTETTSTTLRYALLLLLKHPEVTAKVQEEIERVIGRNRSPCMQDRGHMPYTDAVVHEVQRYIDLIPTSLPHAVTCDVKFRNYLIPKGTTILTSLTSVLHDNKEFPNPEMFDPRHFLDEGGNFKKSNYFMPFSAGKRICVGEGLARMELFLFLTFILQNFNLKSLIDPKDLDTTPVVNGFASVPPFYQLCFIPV

Row | Compound | IC50 (Fms kinase) | IC50 (c-Kit kinase) | IC50 (CYP2C19) | IC50 (CYP2C9)
1 | CCCNc1ncnc2[nH]cc(C(=O)c3ccc(Nc4ccc(C)nc4)nc3F)c12 [Compound P-4114, [2-fluoro-6-[(6-methyl-3-pyridyl)amino]-3-pyridyl]-[4-(propylamino)-7H-pyrrolo[2,3-d]pyrimidin-5-yl]methanone] | < 0.01 µM | < 0.1 µM | > 10 µM | > 10 µM
2 | CCNc1ncnc2[nH]cc(C(=O)c3ccc(Nc4ccc(C5CC5)nc4)nc3F)c12 [Compound P-4060, [6-[(6-cyclopropyl-3-pyridyl)amino]-2-fluoro-3-pyridyl]-[4-(ethylamino)-7H-pyrrolo[2,3-d]pyrimidin-5-yl]methanone] | < 0.01 µM | < 0.1 µM | > 10 µM | > 10 µM
3 | CNc1ncnc2[nH]cc(C(=O)c3ccc(Nc4ccc(C)nc4)nc3F)c12 [Compound P-4115, [2-fluoro-6-[(6-methyl-3-pyridyl)amino]-3-pyridyl]-[4-(methylamino)-7H-pyrrolo[2,3-d]pyrimidin-5-yl]methanone] | < 0.01 µM | < 0.1 µM | < 5 µM | < 5 µM
4 | COc1cncc(Nc2ccc(C(=O)c3c[nH]c4ncnc(NC5CC5)c34)c(F)n2)c1 [Compound P-4107, [4-(cyclopropylamino)-7H-pyrrolo[2,3-d]pyrimidin-5-yl]-[2-fluoro-6-[(5-methoxy-3-pyridyl)amino]-3-pyridyl]methanone] | < 0.1 µM | < 0.1 µM | < 5 µM | < 5 µM
5 | Fc1cc(Cc2c[nH]c3ncnc(NC4CC4)c23)cnc1NC1CCC(F)(F)CC1 [Compound P-4127, N-cyclopropyl-5-[[6-[(4,4-difluorocyclohexyl)amino]-5-fluoro-3-pyridyl]methyl]-7H-pyrrolo[2,3-d]pyrimidin-4-amine] | < 0.1 µM | < 1 µM | 5 to 10 µM | > 10 µM
6 | COc1ccc(Nc2ccc(C(=O)c3c[nH]c4ncnc(NC5CCCC5)c34)c(F)n2)cn1 [Compound P-4075, [4-(cyclopentylamino)-7H-pyrrolo[2,3-d]pyrimidin-5-yl]-[2-fluoro-6-[(6-methoxy-3-pyridyl)amino]-3-pyridyl]methanone] | < 0.01 µM | < 1 µM | 5 to 10 µM | > 10 µM
7 | CCCNc1ncnc2[nH]cc(C(=O)c3ccc(Nc4cncc(OC)c4)nc3F)c12 [Compound P-4105, [2-fluoro-6-[(5-methoxy-3-pyridyl)amino]-3-pyridyl]-[4-(propylamino)-7H-pyrrolo[2,3-d]pyrimidin-5-yl]methanone] | < 0.1 µM | > 1 µM | > 10 µM | > 10 µM
8 | Cc1ccc(Nc2ccc(C(=O)c3c[nH]c4ncnc(NC5CCCCC5)c34)c(F)n2)cn1 [Compound P-4111, [4-(cyclohexylamino)-7H-pyrrolo[2,3-d]pyrimidin-5-yl]-[2-fluoro-6-[(6-methyl-3-pyridyl)amino]-3-pyridyl]methanone] | < 0.1 µM | < 1 µM | 5 to 10 µM | 5 to 10 µM
9 | CNc1ncnc2[nH]cc(C(=O)c3ccc(Nc4ccc(C5CC5)nc4)nc3F)c12 [Compound P-4094, [6-[(6-cyclopropyl-3-pyridyl)amino]-2-fluoro-3-pyridyl]-[4-(methylamino)-7H-pyrrolo[2,3-d]pyrimidin-5-yl]methanone] | < 0.01 µM | < 0.01 µM | < 5 µM | < 5 µM
10 | CNc1ncnc2[nH]cc(C(=O)c3ccc(Nc4ccc(C(F)(F)F)nc4)nc3F)c12 [Compound P-4092, [2-fluoro-6-[[6-(trifluoromethyl)-3-pyridyl]amino]-3-pyridyl]-[4-(methylamino)-7H-pyrrolo[2,3-d]pyrimidin-5-yl]methanone] | < 0.01 µM | < 0.1 µM | < 5 µM | < 5 µM
11 | CCc1ccc(Nc2ccc(C(=O)c3c[nH]c4ncnc(N[C@@H](C)c5ccc(F)cc5)c34)c(F)n2)cn1 [Compound P-4097, [6-[(6-ethyl-3-pyridyl)amino]-2-fluoro-3-pyridyl]-[4-[[(1S)-1-(4-fluorophenyl)ethyl]amino]-7H-pyrrolo[2,3-d]pyrimidin-5-yl]methanone] | < 1 µM | < 1 µM | < 5 µM | < 5 µM
12 | CCCNc1ncnc2[nH]cc(C(=O)c3ccc(Nc4ccc(OC)nc4)nc3F)c12 [Compound P-4068, [2-fluoro-6-[(6-methoxy-3-pyridyl)amino]-3-pyridyl]-[4-(propylamino)-7H-pyrrolo[2,3-d]pyrimidin-5-yl]methanone] | < 0.01 µM | < 0.1 µM | > 10 µM | > 10 µM
13 | CCNc1ncnc2[nH]cc(C(=O)c3ccc(Nc4ccc(CC)nc4)nc3F)c12 [Compound P-4123, [4-(ethylamino)-7H-pyrrolo[2,3-d]pyrimidin-5-yl]-[6-[(6-ethyl-3-pyridyl)amino]-2-fluoro-3-pyridyl]methanone] | < 0.01 µM | < 0.01 µM | > 10 µM | > 10 µM
14 | O=C(c1ccc(NC2CCC(F)(F)CC2)nc1Cl)c1c[nH]c2ncnc(NC3CC3)c12 [Compound P-4059, [2-chloro-6-[(4,4-difluorocyclohexyl)amino]-3-pyridyl]-[4-(cyclopropylamino)-7H-pyrrolo[2,3-d]pyrimidin-5-yl]methanone] | < 0.1 µM | < 1 µM | > 10 µM | 5 to 10 µM
15 | COc1cncc(Nc2ccc(C(=O)c3c[nH]c4ncnc(NC(C)C)c34)c(F)n2)c1 [Compound P-4106, [2-fluoro-6-[(5-methoxy-3-pyridyl)amino]-3-pyridyl]-[4-(isopropylamino)-7H-pyrrolo[2,3-d]pyrimidin-5-yl]methanone] | < 0.1 µM | < 1 µM | < 5 µM | < 5 µM
16 | COc1ccc(Nc2ccc(C(=O)c3c[nH]c4ncnc(N5CCCCC5)c34)c(F)n2)cn1 [Compound P-4069, [2-fluoro-6-[(6-methoxy-3-pyridyl)amino]-3-pyridyl]-[4-(1-piperidyl)-7H-pyrrolo[2,3-d]pyrimidin-5-yl]methanone] | < 1 µM | > 1 µM | 5 to 10 µM | > 10 µM
